Data taken from article PMC10037270 (Journal of medicinal chemistry, 2023).

Tests used:
[1] = target: HA-mouse μOR (Mus musculus, UniProt P42866); experiment: GloSensor cAMP inhibition assay at μOR in transfected HEK cells; type: cell-based; conditions: HEK293, read-out: cAMP inhibition at μOR Emax % ± SEM
[2] = target: κOR (Homo sapiens, UniProt P41145); type: binding
[3] = target: T1, μOR (Homo sapiens, UniProt P35372); type: binding; conditions: screen at 1 μM, [3H]DAMGO
[4] = test system: C57BL/6 mice; experiment: Hot-plate assay; type: in vivo
[5] = test system: C57BL/6 mice; experiment: Warm-water tail-flick assay; type: in vivo
[6] = test system: C57BL/6 mice; experiment: Accelerating rotarod assay; type: in vivo
[7] = target: T1, μOR; type: cell-based; conditions: at 10 μM, DAMGO as control
[8] = naloxone 10 mg/kg i.p. 15 min before 33 100 mg/kg s.c.

T1 sequence (P35372 whole entry): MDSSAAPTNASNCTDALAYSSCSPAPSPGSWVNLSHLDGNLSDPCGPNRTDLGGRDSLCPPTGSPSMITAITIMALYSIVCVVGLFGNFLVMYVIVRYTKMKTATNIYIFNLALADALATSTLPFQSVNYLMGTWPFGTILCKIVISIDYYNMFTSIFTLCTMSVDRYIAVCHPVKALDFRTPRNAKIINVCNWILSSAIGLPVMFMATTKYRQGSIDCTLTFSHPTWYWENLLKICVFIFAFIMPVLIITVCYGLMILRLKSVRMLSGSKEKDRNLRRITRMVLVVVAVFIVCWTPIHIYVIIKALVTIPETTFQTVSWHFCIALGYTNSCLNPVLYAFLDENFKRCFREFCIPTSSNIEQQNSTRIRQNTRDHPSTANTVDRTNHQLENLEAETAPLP
HA-mouse μOR, sequence (P42866 whole entry): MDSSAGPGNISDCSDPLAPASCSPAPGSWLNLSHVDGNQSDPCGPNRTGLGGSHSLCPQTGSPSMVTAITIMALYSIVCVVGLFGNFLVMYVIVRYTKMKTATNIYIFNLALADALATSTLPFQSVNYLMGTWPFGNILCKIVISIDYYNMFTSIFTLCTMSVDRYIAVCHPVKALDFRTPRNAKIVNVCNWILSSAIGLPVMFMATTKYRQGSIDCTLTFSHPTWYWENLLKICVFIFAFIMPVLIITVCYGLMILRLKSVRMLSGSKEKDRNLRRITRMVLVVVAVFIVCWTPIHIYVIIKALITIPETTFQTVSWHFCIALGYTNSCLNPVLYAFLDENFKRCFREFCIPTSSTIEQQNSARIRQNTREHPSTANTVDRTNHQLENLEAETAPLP
κOR, sequence (P41145 whole entry): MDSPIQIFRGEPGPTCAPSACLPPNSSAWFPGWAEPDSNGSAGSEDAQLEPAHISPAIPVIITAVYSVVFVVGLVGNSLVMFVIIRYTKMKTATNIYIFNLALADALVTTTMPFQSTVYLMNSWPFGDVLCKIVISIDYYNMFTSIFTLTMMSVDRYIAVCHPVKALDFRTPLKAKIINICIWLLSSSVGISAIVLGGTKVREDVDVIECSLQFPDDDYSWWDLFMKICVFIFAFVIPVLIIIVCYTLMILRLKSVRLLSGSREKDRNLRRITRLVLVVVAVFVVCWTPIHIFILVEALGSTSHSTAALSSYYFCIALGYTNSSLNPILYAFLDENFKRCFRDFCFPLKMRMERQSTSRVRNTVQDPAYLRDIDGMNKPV

C/C=C1\CN2CC[C@@]34c5ccccc5N(CC)[C@]35OC[C@@]4(C(=O)OC)[C@H]1C[C@H]25 [Compound 31, N-1-Ethyl psuedoakuammigine]
Emax [1]: 59 ± 4%

C/C=C1/CN2CC[C@@]34c5cc(O)c(Br)cc5N(C)[C@]35OC[C@@]4(C(=O)OC)[C@H]1C[C@H]25 [Compound 19, 11-Bromoakuammine]
Emax [1]: 40 ± 5%
radioligand displacement at κOR [2]: > 50%
radioligand displacement at μOR [3]: > 50%

C[C@@H](NC(=O)[C@@H](N)Cc1ccc(O)cc1)C(=O)NCC(=O)N(C)[C@@H](Cc1ccccc1)C(=O)NCCO [DAMGO, (2S)-2-[[2-[[(2R)-2-[[(2S)-2-Amino-3-(4-hydroxyphenyl)propanoyl]amino]propanoyl]amino]acetyl]-methylamino]-N-(2hydroxyethyl)-3-phenylpropanamide, reference compound]
Emax [1]: 96 ± 4%

C/C=C1/CN2CC[C@@]34c5cc(O)ccc5N(C)[C@]35OC[C@@]4(C(=O)OC)[C@H]1C[C@H]25 [Compound 1, Akuammine, reference compound]
Emax [1]: 62 ± 6%

C/C=C1/CN2CC[C@@]34c5cc(O)c(I)cc5N(C)[C@]35OC[C@@]4(C(=O)OC)[C@H]1C[C@H]25 [Compound 20, 11-Iodoakuammine]
Emax [1]: 32 ± 6%
radioligand displacement at κOR [2]: > 50%
radioligand displacement at μOR [3]: > 50%

C/C=C1\CN2CC[C@@]34c5ccccc5N(CCc5ccccc5)[C@]35OC[C@@]4(C(=O)OC)[C@H]1C[C@H]25 [Compound 33, N-1-Phenethyl psuedoakuammigine]
Emax [1]: 76 ± 5%
antinociceptive effect in hot-plate assay ([4]; mice, 80 and 100 mg/kg s.c.): exhibited antinociceptive effect
antinociceptive effect after naloxone pretreatment, hot-plate [4, 8]: completely blocked by naloxone
ED50 ([5]; Mus musculus, sc, read-out: ED50 tail-flick assay): 77.6 mg/kg
antinociception versus morphine (10 mg/kg), peak effect and duration ([5]; mice, 100 mg/kg s.c., tail-flick): comparable to that of the morphine
antinociceptive effect in tail-flick assay ([5]; mice, 80 and 100 mg/kg s.c.): exhibited antinociceptive effect
antinociceptive effect after naloxone pretreatment, tail-flick [5, 8]: completely blocked by naloxone
effect on locomotor activity, latency to fall ([6]; 65 mg/kg and 80 mg/kg s.c., accelerating rotarod 4-40 rpm over 300 s): significantly impaired motor activity
effect on motor coordination ([6]; high doses (80, 100 mg/kg, s.c.)): impair motor coordination
recruitment of βArr2 to the μOR [7]: < 10%

C/C=C1\CN2CC[C@@]34c5ccccc5N(Cc5ccccc5)[C@]35OC[C@@]4(C(=O)OC)[C@H]1C[C@H]25 [Compound 32, N-1-Benzyl psuedoakuammigine]
Emax [1]: 63 ± 4%

C/C=C1/CN2CC[C@@]34c5ccccc5N(C)[C@]35OC[C@@]4(C(=O)OC)[C@H]1C[C@H]25 [Compound 2, Pseudoakuammigine, reference compound]
Emax [1]: 82 ± 7%
